This passage reports EC50 results from ChEMBL document CHEMBL5726630, “Inhibitors of human immunodeficiency virus replication” (2019).

The nature of this test: Biological Methods: HIV cell culture assay-MT-2 cells, 293T cells and the proviral DNA clone of NL4-3 virus were obtained from the NIH AIDS Research and Reference Reagent Program. MT-2 cells were propagated in RPMI 1640 media supplemented with 10% heat inactivated fetal bovine serum (FBS), 100 jag/ml penicillin G and up to 100 units/mL streptomycin. The 293T cells were propagated in DMEM media supplemented with 10% heat inactivated FBS, 100 μg/mL penicillin G and 100 μg/mL streptomycin. A recombinant NL4-3 proviral clone, in which a section of the nef gene was replaced with the Renilla luciferase gene, was used to make the reference virus used in these studies. The recombinant virus was prepared through transfection of the recombinant NL4-3 proviral clone into 293T cells using Transit-293 Transfection Reagent from Mirus Bio LLC (Madison, Wis.). Supernatant was harvested after 2-3 days and the amount of virus present was titered in MT-2 cells using luciferase enzyme activity as a marker by measuring luciferase enzyme activity. Luciferase was quantitated using the EnduRen Live Cell Substrate from Promega (Madison, Wis.). Antiviral activities of compounds toward the recombinant virus were quantified by measuring luciferase activity in MT-2 cells infected for 4-5 days with the recombinant virus in the presence of serial dilutions of the compound. It counts as cell-based.

In general, EC50 refers to the concentration needed to bring the measured effect to its halfway point.

SMILES strings stand for the structures. Some results are limits rather than exact numbers.

`CC1CN(S(=O)(=O)NC(=O)N[C@@H](Cc2cc(F)cc(F)c2)C(=O)N(C)c2ccc3scnc3c2)c2ncccc21` (single isomer, unassigned): the EC50 is less than 0.01 µM.

Turning to `C[C@H]1Cc2cccnc2N1S(=O)(=O)NC(=O)N[C@@H](Cc1cc(F)cc(F)c1)C(=O)N(C)c1ccc2scnc2c1`, the EC50 stood at 0.05 µM.

As to `C[C@H]1CCc2ccccc2N1S(=O)(=O)NC(=O)N[C@@H](Cc1cc(F)cc(F)c1)C(=O)N(C)c1ccc2scnc2c1`, the EC50 stood at 0.09 µM.

As for `C[C@@H]1CCc2ccccc2N1S(=O)(=O)NC(=O)N[C@@H](Cc1cc(F)cc(F)c1)C(=O)N(C)c1ccc2scnc2c1`, the EC50 amounted to 0.1 µM.

Turning to `C[C@@H]1Cc2cccnc2N1S(=O)(=O)NC(=O)N[C@@H](Cc1cc(F)cc(F)c1)C(=O)N(C)c1ccc2scnc2c1`, the EC50 was determined as 0.02 µM.
